Assay results from ChEMBL document CHEMBL1154879, “Discovery of (thienopyrimidin-2-yl)aminopyrimidines as potent, selective, and orally available pan-PI3-kinase and dual pan-PI3-kinase/mTOR inhibitors for the treatment of cancer” (J Med Chem, 2010).
Calls of active or inactive are those of the source. No cut-off for these calls is given here.

Assays:
[1] = biological target: Phosphatidylinositol 4-phosphate 3-kinase C2 domain-containing subunit alpha (Homo sapiens) (UniProt O00443); test: Inhibition of PIK3C2alpha at 1 uM
[2] = biological target: Phosphatidylinositol 4-phosphate 3-kinase C2 domain-containing subunit beta (Homo sapiens) (UniProt O00750); test: Inhibition of PIK3C2beta at 1 uM
[3] = biological target: Phosphatidylinositol 3-kinase catalytic subunit type 3 (Homo sapiens) (UniProt Q8NEB9); test: Inhibition of VPS34 at 1 uM
[4] = biological target: Phosphatidylinositol 4-kinase beta (Homo sapiens) (UniProt Q9UBF8); test: Inhibition of PI4Kbeta at 1 uM
PC-3 [5] = test: Antitumor activity against human PC3 cells xenografted in nu/nu mouse assessed as inhibition of tumor growth at 10 mg/kg, po qd for 14 days; format: functional; settings: PC-3, 336 h, read-out: TGI
PC-3 [6] = test: Antitumor activity against human PC3 cells xenografted in nu/nu mouse assessed as inhibition of tumor growth at 1 mg/kg, po qd for 14 days; format: functional, organism-based; parameters: dose 1 mg/kg
Mus musculus [7] = test: Inhibition of PI3K/Akt/mTOR pathway signaling in PI3Kalpha mutant expressing human MCF7.1 cells xenografted nu/nu mouse assessed as inhibition of Akt Ser473 phosphorylation at 10 mg/kg, po qd for 21 days measured 1 hr after last administered dose on day 21 by electrochemiluminescence assay; format: functional
Mus musculus [8] = test: Inhibition of PI3K/Akt/mTOR pathway signaling in PI3Kalpha mutant expressing human MCF7.1 cells xenografted nu/nu mouse assessed as inhibition of Akt Ser473 phosphorylation at 10 mg/kg, po qd for 21 days measured 4 hrs after last administered dose on day 21 by electrochemiluminescence assay; format: functional
Mus musculus [9] = test: Inhibition of PI3K/Akt/mTOR pathway signaling in PI3Kalpha mutant expressing human MCF7.1 cells xenografted nu/nu mouse assessed as inhibition of Pras40 Thr246 phosphorylation at 10 mg/kg, po qd for 21 days measured 1 hr after last administered dose on day 21 by ELISA; format: functional
Mus musculus [10] = test: Inhibition of PI3K/Akt/mTOR pathway signaling in PI3Kalpha mutant expressing human MCF7.1 cells xenografted nu/nu mouse assessed as inhibition of Pras40 Thr246 phosphorylation at 10 mg/kg, po qd for 21 days measured 4 hrs after last administered dose on day 21 by ELISA; format: functional
PC-3 [11] = test: Antitumor activity against human PC3 cells xenografted in nu/nu mouse assessed as reduction of tumor volume at 10 mg/kg, po qd for 14 days; format: functional; parameters: scale not given: the % may be the effect or the level left
Mus musculus [12] = test: Toxicity in human PC3 cells xenografted nu/nu mouse assessed as body weight loss at 1 mg/kg, po qd for 14 days; format: organism-based, PC-3; parameters: dose 1 mg/kg, route oral; settings: in vivo, 336 h
Mus musculus [13] = test: Toxicity in human PC3 cells xenografted nu/nu mouse assessed as body weight loss at 10 mg/kg, po qd for 14 days; format: organism-based, PC-3; parameters: dose 10 mg/kg, route oral; settings: in vivo, 336 h
[14] = Antitumor activity against human MCF7.1 cells expressing PI3Kalpha mutant xenografted in nu/nu mouse assessed as inhibition of tumor growth at 10 mg/kg, po qd for 21 days; format: functional; settings: MCF7.1, 504 h, read-out: TGI
Mus musculus [15] = test: Toxicity in human MCF7.1 cells expressing PI3Kalpha mutant xenografted nu/nu mouse assessed as body weight loss at 10 mg/kg, po qd for 21 days; format: organism-based; parameters: dose 10 mg/kg, route oral; settings: in vivo, 504 h
Mus musculus [16] = test: Inhibition of PI3K/Akt/mTOR pathway signaling in PI3Kalpha mutant expressing human MCF7.1 cells xenografted nu/nu mouse assessed as inhibition of S6RP Ser235/236 phosphorylation at 10 mg/kg, po qd for 21 days measured 1 hr after last administered dose on day 21 by electrochemiluminescence assay; format: functional
Mus musculus [17] = test: Inhibition of PI3K/Akt/mTOR pathway signaling in PI3Kalpha mutant expressing human MCF7.1 cells xenografted nu/nu mouse assessed as inhibition of S6RP Ser235/236 phosphorylation at 10 mg/kg, po qd for 21 days measured 4 hrs after last administered dose on day 21 by electrochemiluminescence assay; format: functional
[18] = Oral bioavailability in Beagle dog at 2 mg/kg, po; format: ADME, organism-based, Canis lupus familiaris; settings: in vivo
[19] = Protein binding in Beagle dog plasma; format: ADME, cell-free, Canis lupus familiaris; settings: read-out: PPB (converted)
[20] = Volume of distribution at steady state in Sprague-Dawley rat at 1 mg/kg, iv; format: ADME, organism-based; parameters: dose 1 mg/kg, route intravenous; settings: in vivo, read-out: Vdss
[21] = Half life in nu/nu mouse at 5 mg/kg, po; format: ADME, organism-based; parameters: dose 5 mg/kg, route oral; settings: in vivo
Aurora kinase A = biological target: T1, Aurora kinase A (Homo sapiens, UniProt O14965); test: Inhibition of Aurora A kinase
T1 sequence (O14965 whole entry): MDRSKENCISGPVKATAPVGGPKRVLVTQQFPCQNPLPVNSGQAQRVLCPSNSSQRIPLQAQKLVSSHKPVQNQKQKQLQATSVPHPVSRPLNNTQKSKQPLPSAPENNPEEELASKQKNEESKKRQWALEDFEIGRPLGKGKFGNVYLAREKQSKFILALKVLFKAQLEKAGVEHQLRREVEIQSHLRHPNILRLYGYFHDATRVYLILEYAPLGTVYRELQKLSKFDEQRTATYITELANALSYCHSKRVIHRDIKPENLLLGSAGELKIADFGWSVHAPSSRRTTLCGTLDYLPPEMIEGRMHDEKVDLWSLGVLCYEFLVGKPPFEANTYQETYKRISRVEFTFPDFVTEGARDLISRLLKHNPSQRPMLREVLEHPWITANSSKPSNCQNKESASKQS

[22] = biological target: Mitogen-activated protein kinase kinase kinase 9 (Homo sapiens, UniProt P80192); test: Inhibition of MLK1
[23] = biological target: Tyrosine-protein kinase SYK (Homo sapiens, UniProt P43405); test: Inhibition of SYK
PC-3 [24] = test: Antiproliferative activity against human PC3 cells deficient in PTEN in after 3 to 4 days; format: functional, cell-based
[25] = Clearance in Sprague-Dawley rat at 1 mg/kg, iv; format: ADME, organism-based; parameters: dose 1 mg/kg, route intravenous; settings: in vivo
[26] = Oral bioavailability in Sprague-Dawley rat at 2 mg/kg; format: ADME, organism-based; settings: in vivo
[27] = Clearance in Sprague-Dawley rat liver microsomes; format: ADME, Microsome
[28] = Clearance in nu/nu mouse at 1 mg/kg, iv; format: ADME, organism-based; parameters: dose 1 mg/kg, route intravenous; settings: in vivo
[29] = Clearance in cynomolgus monkey at 1 mg/kg, iv; format: ADME, organism-based, Macaca fascicularis; parameters: dose 1 mg/kg, route intravenous; settings: in vivo
[30] = Clearance in Beagle dog at 1 mg/kg, iv; format: ADME, organism-based, Canis lupus familiaris; parameters: dose 1 mg/kg, route intravenous; settings: in vivo
[31] = Volume of distribution at steady state in nu/nu mouse at 1 mg/kg, iv; format: ADME, organism-based; parameters: dose 1 mg/kg, route intravenous; settings: in vivo, read-out: Vdss
[32] = Volume of distribution at steady state in cynomolgus monkey at 1 mg/kg, iv; format: ADME, organism-based, Macaca fascicularis; parameters: dose 1 mg/kg, route intravenous; settings: in vivo, read-out: Vdss
[33] = Volume of distribution at steady state in Beagle dog at 1 mg/kg, iv; format: ADME, organism-based, Canis lupus familiaris; parameters: dose 1 mg/kg, route intravenous; settings: in vivo, read-out: Vdss
[34] = Cmax in nu/nu mouse at 5 mg/kg, po; format: ADME, organism-based; parameters: dose 5 mg/kg, route oral; settings: in vivo
[35] = AUC in nu/nu mouse at 5 mg/kg, po; format: ADME, organism-based; parameters: dose 5 mg/kg, route oral; settings: plasma
[36] = Oral bioavailability in nu/nu mouse at 5 mg/kg, po; format: ADME, organism-based; settings: in vivo
[37] = Protein binding in mouse plasma; format: ADME, cell-free; settings: read-out: PPB (converted)
[38] = Cmax in Sprague-Dawley rat at 5 mg/kg, po; format: ADME, organism-based; parameters: dose 5 mg/kg, route oral; settings: in vivo
[39] = AUC in Sprague-Dawley rat at 5 mg/kg, po; format: ADME, organism-based; parameters: dose 5 mg/kg, route oral; settings: plasma
[40] = Oral bioavailability in Sprague-Dawley rat at 5 mg/kg, po; format: ADME, organism-based; settings: in vivo
[41] = Protein binding in rat plasma; format: ADME, cell-free; settings: read-out: PPB (converted)
[42] = Cmax in cynomolgus monkey at 2 mg/kg, po; format: ADME, organism-based, Macaca fascicularis; parameters: dose 2 mg/kg, route oral; settings: in vivo
[43] = AUC in cynomolgus monkey at 2 mg/kg, po; format: ADME, organism-based, Macaca fascicularis; parameters: dose 2 mg/kg, route oral; settings: plasma
[44] = Oral bioavailability in cynomolgus monkey at 2 mg/kg, po; format: ADME, organism-based, Macaca fascicularis; settings: in vivo
[45] = Protein binding in cynomolgus monkey plasma; format: ADME, cell-free, Macaca fascicularis; settings: read-out: PPB (converted)
[46] = Cmax in Beagle dog at 2 mg/kg, po; format: ADME, organism-based, Canis lupus familiaris; parameters: dose 2 mg/kg, route oral; settings: in vivo
[47] = AUC in Beagle dog at 2 mg/kg, po; format: ADME, organism-based, Canis lupus familiaris; parameters: dose 2 mg/kg, route oral; settings: plasma
[48] = biological target: Serine/threonine-protein kinase mTOR (Homo sapiens, UniProt P42345)

Sequence of Phosphatidylinositol 4-kinase beta (Homo sapiens) (Q9UBF8 2-816 limits assumed): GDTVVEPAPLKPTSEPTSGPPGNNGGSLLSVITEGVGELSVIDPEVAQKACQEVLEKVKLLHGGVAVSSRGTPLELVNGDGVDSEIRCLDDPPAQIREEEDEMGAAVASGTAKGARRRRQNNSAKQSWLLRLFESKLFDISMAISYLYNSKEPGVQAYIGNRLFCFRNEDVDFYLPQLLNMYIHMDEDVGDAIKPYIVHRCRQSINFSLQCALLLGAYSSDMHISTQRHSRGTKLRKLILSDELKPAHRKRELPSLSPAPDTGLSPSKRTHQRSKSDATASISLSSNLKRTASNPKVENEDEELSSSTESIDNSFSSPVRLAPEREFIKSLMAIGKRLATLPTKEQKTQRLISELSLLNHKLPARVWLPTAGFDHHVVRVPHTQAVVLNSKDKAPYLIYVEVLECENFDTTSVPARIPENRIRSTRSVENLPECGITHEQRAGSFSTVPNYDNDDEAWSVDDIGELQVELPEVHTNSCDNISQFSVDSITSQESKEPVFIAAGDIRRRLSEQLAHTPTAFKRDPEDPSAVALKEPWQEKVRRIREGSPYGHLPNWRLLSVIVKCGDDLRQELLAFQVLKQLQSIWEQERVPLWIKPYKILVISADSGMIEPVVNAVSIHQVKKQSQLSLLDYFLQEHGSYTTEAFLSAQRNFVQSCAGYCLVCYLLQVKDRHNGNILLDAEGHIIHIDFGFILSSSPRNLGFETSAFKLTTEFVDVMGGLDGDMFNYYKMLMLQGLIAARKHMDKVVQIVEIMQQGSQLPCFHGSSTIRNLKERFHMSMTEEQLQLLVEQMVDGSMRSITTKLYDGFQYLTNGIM
Sequence of Phosphatidylinositol 3-kinase catalytic subunit type 3 (Homo sapiens) (Q8NEB9 whole entry): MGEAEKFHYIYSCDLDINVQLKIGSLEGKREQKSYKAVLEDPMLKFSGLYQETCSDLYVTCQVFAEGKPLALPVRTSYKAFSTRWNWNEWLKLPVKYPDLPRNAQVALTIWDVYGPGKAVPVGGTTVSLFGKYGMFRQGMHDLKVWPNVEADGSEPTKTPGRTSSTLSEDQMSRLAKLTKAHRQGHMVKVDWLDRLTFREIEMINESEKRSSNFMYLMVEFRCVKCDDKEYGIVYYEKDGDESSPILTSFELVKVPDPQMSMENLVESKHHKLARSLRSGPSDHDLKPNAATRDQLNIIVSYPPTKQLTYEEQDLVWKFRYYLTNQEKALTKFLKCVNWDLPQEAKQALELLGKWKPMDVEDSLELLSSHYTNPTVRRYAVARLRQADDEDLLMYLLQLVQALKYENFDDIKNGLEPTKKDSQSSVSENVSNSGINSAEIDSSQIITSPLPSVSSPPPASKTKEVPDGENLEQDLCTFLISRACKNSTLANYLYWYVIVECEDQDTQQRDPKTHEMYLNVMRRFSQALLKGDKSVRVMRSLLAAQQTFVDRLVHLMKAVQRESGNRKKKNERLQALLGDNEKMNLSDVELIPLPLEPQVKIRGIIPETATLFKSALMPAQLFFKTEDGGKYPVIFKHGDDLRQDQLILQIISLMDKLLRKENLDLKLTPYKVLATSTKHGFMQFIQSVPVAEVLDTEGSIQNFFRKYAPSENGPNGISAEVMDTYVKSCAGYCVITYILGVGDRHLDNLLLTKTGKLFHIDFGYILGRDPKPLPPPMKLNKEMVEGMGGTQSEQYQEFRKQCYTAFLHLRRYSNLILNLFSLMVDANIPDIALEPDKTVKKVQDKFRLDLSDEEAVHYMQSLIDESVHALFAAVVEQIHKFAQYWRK
Sequence of Phosphatidylinositol 4-phosphate 3-kinase C2 domain-containing subunit beta (Homo sapiens) (O00750 whole entry, the tested form may be a part): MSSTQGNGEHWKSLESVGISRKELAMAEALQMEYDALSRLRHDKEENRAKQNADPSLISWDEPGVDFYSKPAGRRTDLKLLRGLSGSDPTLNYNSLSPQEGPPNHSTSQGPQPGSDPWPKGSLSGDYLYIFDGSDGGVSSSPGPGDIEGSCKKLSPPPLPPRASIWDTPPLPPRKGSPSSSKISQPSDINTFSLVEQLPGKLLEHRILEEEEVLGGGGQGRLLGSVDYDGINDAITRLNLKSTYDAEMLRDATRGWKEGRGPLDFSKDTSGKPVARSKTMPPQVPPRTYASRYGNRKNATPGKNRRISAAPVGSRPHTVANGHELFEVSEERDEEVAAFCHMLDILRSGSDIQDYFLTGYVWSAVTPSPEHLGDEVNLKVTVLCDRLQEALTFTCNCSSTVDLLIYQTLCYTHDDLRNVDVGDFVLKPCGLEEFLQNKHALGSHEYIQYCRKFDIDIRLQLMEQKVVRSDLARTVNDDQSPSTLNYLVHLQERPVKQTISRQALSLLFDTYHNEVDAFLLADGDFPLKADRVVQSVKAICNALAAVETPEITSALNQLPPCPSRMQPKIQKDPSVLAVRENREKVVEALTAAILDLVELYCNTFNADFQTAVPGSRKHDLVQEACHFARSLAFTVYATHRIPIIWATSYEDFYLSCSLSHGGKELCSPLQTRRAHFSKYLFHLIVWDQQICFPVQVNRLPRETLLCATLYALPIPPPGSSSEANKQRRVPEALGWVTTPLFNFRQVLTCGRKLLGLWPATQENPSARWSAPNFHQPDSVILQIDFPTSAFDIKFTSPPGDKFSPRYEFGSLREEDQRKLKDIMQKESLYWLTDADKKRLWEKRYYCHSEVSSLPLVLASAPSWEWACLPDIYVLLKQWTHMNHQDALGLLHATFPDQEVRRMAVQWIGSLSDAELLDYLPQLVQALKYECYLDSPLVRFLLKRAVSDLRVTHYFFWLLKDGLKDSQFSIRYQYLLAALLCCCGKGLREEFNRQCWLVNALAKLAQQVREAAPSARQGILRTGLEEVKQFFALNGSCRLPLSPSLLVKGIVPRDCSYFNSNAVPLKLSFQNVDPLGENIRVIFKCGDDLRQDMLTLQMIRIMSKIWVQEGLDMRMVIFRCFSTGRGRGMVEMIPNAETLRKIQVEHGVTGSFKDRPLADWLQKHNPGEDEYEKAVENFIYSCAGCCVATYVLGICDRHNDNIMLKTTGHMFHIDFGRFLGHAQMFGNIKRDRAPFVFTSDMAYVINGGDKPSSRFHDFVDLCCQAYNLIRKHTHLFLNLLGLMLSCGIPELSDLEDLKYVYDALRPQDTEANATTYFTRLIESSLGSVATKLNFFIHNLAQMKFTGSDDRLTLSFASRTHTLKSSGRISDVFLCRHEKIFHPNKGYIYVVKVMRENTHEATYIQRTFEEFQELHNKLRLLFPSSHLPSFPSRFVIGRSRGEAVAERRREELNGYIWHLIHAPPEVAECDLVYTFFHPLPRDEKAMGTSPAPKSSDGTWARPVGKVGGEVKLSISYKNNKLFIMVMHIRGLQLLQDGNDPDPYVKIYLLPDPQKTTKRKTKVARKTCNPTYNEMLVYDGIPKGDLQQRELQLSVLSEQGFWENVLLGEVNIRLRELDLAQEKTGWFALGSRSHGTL
Sequence of Mitogen-activated protein kinase kinase kinase 9 (P80192 whole entry): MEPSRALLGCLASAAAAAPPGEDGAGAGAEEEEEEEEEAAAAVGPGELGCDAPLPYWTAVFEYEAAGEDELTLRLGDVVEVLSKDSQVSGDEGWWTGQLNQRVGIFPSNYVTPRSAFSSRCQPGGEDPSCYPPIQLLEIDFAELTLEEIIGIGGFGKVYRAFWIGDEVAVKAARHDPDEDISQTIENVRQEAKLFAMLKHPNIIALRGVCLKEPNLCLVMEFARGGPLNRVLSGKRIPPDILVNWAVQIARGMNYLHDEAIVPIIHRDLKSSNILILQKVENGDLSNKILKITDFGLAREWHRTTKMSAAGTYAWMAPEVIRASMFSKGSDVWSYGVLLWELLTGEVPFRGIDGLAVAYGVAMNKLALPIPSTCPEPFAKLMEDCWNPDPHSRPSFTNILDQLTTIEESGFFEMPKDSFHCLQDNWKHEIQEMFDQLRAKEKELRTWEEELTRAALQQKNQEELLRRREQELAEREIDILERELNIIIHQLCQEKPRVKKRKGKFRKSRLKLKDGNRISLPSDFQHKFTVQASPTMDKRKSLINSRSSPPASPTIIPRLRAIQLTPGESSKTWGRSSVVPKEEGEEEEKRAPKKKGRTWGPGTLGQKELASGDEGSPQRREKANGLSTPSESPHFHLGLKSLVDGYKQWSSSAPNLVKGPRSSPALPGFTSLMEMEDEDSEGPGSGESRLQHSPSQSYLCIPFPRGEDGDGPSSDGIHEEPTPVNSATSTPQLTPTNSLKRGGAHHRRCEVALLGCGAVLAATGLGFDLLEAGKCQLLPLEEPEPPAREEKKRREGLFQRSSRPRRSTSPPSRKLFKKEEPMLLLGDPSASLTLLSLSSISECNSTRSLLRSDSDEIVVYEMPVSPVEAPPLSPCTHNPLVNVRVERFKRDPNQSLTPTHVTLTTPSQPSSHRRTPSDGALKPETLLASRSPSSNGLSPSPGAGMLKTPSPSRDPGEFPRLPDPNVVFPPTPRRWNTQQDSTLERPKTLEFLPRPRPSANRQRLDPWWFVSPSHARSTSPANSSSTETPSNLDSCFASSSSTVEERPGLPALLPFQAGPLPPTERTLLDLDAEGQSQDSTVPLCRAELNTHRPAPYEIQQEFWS

## CC(C)(O)c1cc2nc(-c3cnc(N)nc3)nc(N3CCOCC3)c2s1
[1]
  inhibition: 65%
[2]
  inhibition: 78%
[3]
  inhibition: inactive
[4]
  inhibition: inactive
PC-3 [5]
  inhibition in vivo at 10 mg/kg: 89%
PC-3 [6]
  Activity: inactive
Mus musculus [7]
  inhibition in vivo at 10 mg/kg: 80%
Mus musculus [8]
  inhibition in vivo at 10 mg/kg: 73%
Mus musculus [9]
  inhibition in vivo at 10 mg/kg: 98%
Mus musculus [10]
  inhibition in vivo at 10 mg/kg: 88%
PC-3 [11]
  Activity: 89%
Mus musculus [12]
  Activity: Non-toxic
Mus musculus [13]
  Activity: Non-toxic
[14]
  inhibition in vivo at 10 mg/kg: 73%
Mus musculus [15]
  Activity: Non-toxic
Mus musculus [16]
  inhibition in vivo at 10 mg/kg: 81%
Mus musculus [17]
  inhibition in vivo at 10 mg/kg: 75%
[18]
  bioavailability: 100%
[19]
  fraction unbound: 0.27
[20]
  Vd: 2.8 L/kg
[21]
  half-life: 3.6 h
Aurora kinase A
  IC50: > 10000 nM
[22]
  IC50: 591 nM
[23]
  IC50: 371 nM
PC-3 [24]
  IC50: 330 nM
[25]
  clearance: 9 mL/min/kg
[26]
  bioavailability: 83%
[27]
  CLint scaled: 23 mL/min/kg
[28]
  clearance: 17 mL/min/kg
[29]
  clearance: 15 mL/min/kg
[30]
  clearance: 1.6 mL/min/kg
[31]
  Vd: 2.8 L/kg
[32]
  Vd: 3 L/kg
[33]
  Vd: 1.6 L/kg
[34]
  Cmax: 2100 nM
[35]
  AUC: 14 µM·h
[36]
  bioavailability: 100%
[37]
  fraction unbound: 0.36
[38]
  Cmax: 2200 nM
[39]
  AUC: 21 µM·h
[40]
  bioavailability: 83%
[41]
  fraction unbound: 0.51
[42]
  Cmax: 1100 nM
[43]
  AUC: 3.8 µM·h
[44]
  bioavailability: 62%
[45]
  fraction unbound: 0.21
[46]
  Cmax: 4400 nM
[47]
  AUC: 63 µM·h
[48]
  IC50: 30 nM
